Test results as given in patent US20050137807A1, “Method of visualization of the ADME properties of chemical substances” (priority 2003, published 2005).
Where two headings read alike, the source gives them in different places.

What was measured:
[1] = membrane affinity as a measure of the lipophilicity (TRANSIL technology); format: physicochemical
human serum albumin = human serum albumin (Homo sapiens, UniProt P02768); assay: binding constant to human serum albumin (TRANSIL technology)
Description: The effective molecular weight (MW) is obtained simply from the respective empirical formula of the substance. The waters solubilities and the typical administered dosages of these commercially available products are furthermore known from the literature.
The ADME maps in FIGS. 5 to 10 show by way of example a selection of commercially available pharmaceutical substances. The substance names and the associated experimental measurement values for their physicochemical properties are summarised in Table 1.

[2] = log binding constant to human serum albumin, TRANSIL

human serum albumin, sequence (P02768 25-609): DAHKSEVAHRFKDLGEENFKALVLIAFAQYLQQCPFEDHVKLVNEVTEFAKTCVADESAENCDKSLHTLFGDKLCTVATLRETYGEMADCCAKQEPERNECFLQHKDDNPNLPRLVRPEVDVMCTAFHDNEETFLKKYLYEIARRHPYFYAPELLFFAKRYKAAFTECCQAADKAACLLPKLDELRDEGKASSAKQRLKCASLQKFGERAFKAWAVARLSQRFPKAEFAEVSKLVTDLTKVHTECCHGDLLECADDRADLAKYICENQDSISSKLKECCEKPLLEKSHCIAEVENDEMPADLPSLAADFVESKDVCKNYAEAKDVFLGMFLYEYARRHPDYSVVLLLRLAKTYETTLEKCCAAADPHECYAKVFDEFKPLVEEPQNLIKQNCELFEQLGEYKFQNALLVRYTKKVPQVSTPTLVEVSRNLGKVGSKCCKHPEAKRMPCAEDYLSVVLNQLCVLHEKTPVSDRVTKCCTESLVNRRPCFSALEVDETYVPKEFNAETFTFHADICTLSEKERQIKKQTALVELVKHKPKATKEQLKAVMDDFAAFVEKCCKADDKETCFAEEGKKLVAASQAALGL

Work on `O=C(O)c1ccccc1O` [Salicylic acid] yielded a LogMA [1] of 0.602.
With `CC1(C)S[C@@H]2[C@H](NC(=O)[C@H](N)c3ccccc3)C(=O)N2[C@H]1C(=O)O` [Ampicillin] the LogMA [1] was 1.114.
`CCN(CC)CC(=O)Nc1c(C)cccc1C` [Lidocaine] showed a LogMA [1] of 1.771.
For `N=C(N)NC(=O)c1nc(Cl)c(N)nc1N` [Amiloride], the LogMA [1] was 0.301.
Compound `CC1(C)S[C@@H]2[C@H](NC(=O)COc3ccccc3)C(=O)N2[C@H]1C(=O)O` [Phenoxymethyl penicillinic acid] has a LogHSA (human serum albumin) of −3.102 and a LogMA [1] of 1.146.
`O=C(O)c1cc(/N=N/c2ccc(S(=O)(=O)Nc3ccccn3)cc2)ccc1O` [Sulfasalacine] showed a LogMA [1] of 2.748.
Compound `CC(=O)Oc1ccccc1C(=O)O` [Acetylsalicylic acid] has a LogHSA (human serum albumin; human) of −3.097 and a LogMA [1] of 0.301.
In the case of `Cc1nnc(NS(=O)(=O)c2ccc(N)cc2)s1` [Sulfamethizole], the LogHSA (human serum albumin; human) was −4.000 and the LogMA [1] was 1.000.
With `COCCOC(=O)C1=C(C)NC(C)=C(C(=O)OC(C)C)C1c1cccc([N+](=O)[O-])c1` (stereo not shown) [Nimodipine] the LogHSA (human serum albumin; human) was −5.000.
In the case of `OC(CCN1CCCCC1)(c1ccccc1)C1CCCCC1` (stereo not shown) [Trihexylphenidyl], the LogHSA (human serum albumin; [2]) was −3.006 and the LogMA [1] was 2.415.
With `CN/C(=N/CCSCc1nc[nH]c1C)NC#N` [Cimetidine] the LogHSA (human serum albumin; human) was −1.876 and the LogMA [1] was 1.176.
For `CC(C)n1c(/C=C/C(O)CC(O)CC(=O)O)c(-c2ccc(F)cc2)c2ccccc21` (stereo not shown) [Fluvastatin], the LogHSA (human serum albumin; human) was −5.678.
For `C[C@H]1C[C@@H]2[C@H]([C@@H](O)C[C@@]3(C)[C@H]2CC[C@]3(O)C(=O)CO)[C@@]2(C)C=CC(=O)C=C12` [Methylprednisolone], the LogHSA (human serum albumin; human) was −3.000.
Work on `Clc1cccc(Cl)c1N=C1NCCN1` [Clonidine] yielded a LogHSA (human serum albumin; human) of −2.463 and a LogMA [1] of 1.602.
In the case of `CC(C)=CCN1CCC2(C)c3cc(O)ccc3CC1C2C` (stereo not shown) [Pentazocin], the LogHSA (human serum albumin; [2]) was −2.510 and the LogMA [1] was 2.633.
`O=C(CCCN1CCC(O)(c2ccc(Cl)cc2)CC1)c1ccc(F)cc1` [Haloperidol] showed a LogHSA (human serum albumin; human) of −2.745 and a LogMA [1] of 3.723.
Work on `O=C(O)c1cn(C2CC2)c2cc(N3CCNCC3)c(F)cc2c1=O` [Ciprofloxacin] yielded a LogMA [1] of 0.954.
`COc1cc([C@@H]2c3cc4c(cc3[C@@H](O[C@@H]3O[C@@H]5CO[C@@H](C)O[C@H]5[C@H](O)[C@H]3O)[C@H]3COC(=O)[C@H]23)OCO4)cc(OC)c1O` [Etoposide] showed a LogMA [1] of 2.000.
`C[C@]12CCC(=O)C=C1CC[C@@H]1[C@@H]2[C@@H](O)C[C@@]2(C)[C@H]1CC[C@]2(O)C(=O)CO` [Hydrocortisone] showed a LogMA [1] of 2.716.
`CCCC(C)C1(CC)C(=O)NC(=O)NC1=O` (stereo not shown) [Pentobarbital] gave a LogHSA (human serum albumin; [2]) of −2.523 and a LogMA [1] of 2.176.
For `NC(=O)N1c2ccccc2C=Cc2ccccc21` [Carbamazepine], the LogHSA (human serum albumin; human) was −2.539 and the LogMA [1] was 2.519.
Compound `CC(C(=O)O)c1cccc(C(=O)c2ccccc2)c1` (stereo not shown) [Ketoprofen] has a LogMA [1] of 1.505.
Compound `CCC1(c2ccccc2)C(=O)NC(=O)NC1=O` [Phenobarbital] has a LogHSA (human serum albumin; [2]) of −2.854.
Compound `COCCc1ccc(OCC(O)CNC(C)C)cc1` (stereo not shown) [Metoprolol] has a LogHSA (human serum albumin; human) of −2.000 and a LogMA [1] of 1.591.
`CC(C)NCC(O)COc1ccc(CC(N)=O)cc1` (stereo not shown) [Atenolol] gave a LogMA [1] of 0.602.
Work on `CO[C@@]1(NC(=O)Cc2cccs2)C(=O)N2C(C(=O)O)=C(COC(N)=O)CS[C@@H]21` [Cefoxitin] yielded a LogMA [1] of 1.000.
With `O=C1CN=C(c2ccccc2)c2cc(Cl)ccc2N1` [Nordiazepam] the LogMA [1] was 3.086.
Gentamicin gave a LogMA [1] of 0.000.
Compound `NCCCC[C@H](N[C@@H](CCc1ccccc1)C(=O)O)C(=O)N1CCC[C@H]1C(=O)O` [Lisinopril] has a LogMA [1] of 0.845.
`O=C(O)Cc1ccccc1Nc1c(Cl)cccc1Cl` [Diclofenac] gave a LogMA [1] of 2.940.
`Cc1cn([C@H]2C[C@H](N=[N+]=[N-])[C@@H](CO)O2)c(=O)[nH]c1=O` [Zidovudine] gave a LogMA [1] of 0.903.
Work on `COc1cc2nc(N3CCN(C(=O)c4ccco4)CC3)nc(N)c2cc1OC` [Prazosin] yielded a LogMA [1] of 2.544.
`CC(=O)CC(c1ccccc1)c1c(O)c2ccccc2oc1=O` (stereo not shown) [Warfarin] gave a LogMA [1] of 1.505.
`CC(=O)Nc1ccc(O)cc1` [Paracetamol] showed a LogHSA (human serum albumin; human) of −2.000 and a LogMA [1] of 0.778.
In the case of `COc1ccc(Cl)cc1C(=O)NCCc1ccc(S(=O)(=O)NC(=O)NC2CCCCC2)cc1` [Glibenclamid], the LogHSA (human serum albumin) was −6.221 and the LogMA [1] was 2.301.
Compound `CCn1cc(C(=O)O)c(=O)c2cc(F)c(N3CCNCC3)cc21` [Norfloxacin] has a LogHSA (human serum albumin; human) of −3.000 and a LogMA [1] of 0.602.
Work on `Nc1nc2c(ncn2COCCO)c(=O)[nH]1` [Acyclovir] yielded a LogMA [1] of −0.097.
For `CN1CCN(C2=Nc3cc(Cl)ccc3Nc3ccccc32)CC1` [Clozapine], the LogHSA (human serum albumin; human) was −3.814.
`NC[C@H]1CC[C@H](C(=O)O)CC1` [Tranexamic acid] gave a LogHSA (human serum albumin; human) of −4.000 and a LogMA [1] of −0.301.
`Cc1nnc(SCC2=C(C(=O)O)N3C(=O)[C@@H](NC(=O)Cn4cnnn4)[C@H]3SC2)s1` [Cefazolin] gave a LogHSA (human serum albumin; [2]) of −3.456 and a LogMA [1] of 0.903.
In the case of `CCN(CC)CCNC(=O)c1ccc(N)cc1` [Procainamide], the LogMA [1] was 1.176.
With `Cc1ccccc1N1C(=O)c2cc(S(N)(=O)=O)c(Cl)cc2NC1C` (stereo not shown) [Metolazone] the LogHSA (human serum albumin; human) was −4.201 and the LogMA [1] was 1.531.
Work on `C[C@H](CS)C(=O)N1CCC[C@H]1C(=O)O` [Captopril] yielded a LogHSA (human serum albumin; human) of −3.222 and a LogMA [1] of 0.477.
Compound `CN1C(=O)CN=C(c2ccccc2)c2cc(Cl)ccc21` [Diazepam] has a LogMA [1] of 3.170.
`CC(=O)Nc1ccc(OCC(O)CNC(C)C)cc1` (stereo not shown) [Practolol] gave a LogMA [1] of 1.301.
Work on `CN(C)CCCN1c2ccccc2Sc2ccc(Cl)cc21` [Chlorpromazine] yielded a LogHSA (human serum albumin; human) of −3.284 and a LogMA [1] of 4.075.
`CN1[C@@H]2C[C@@H](OC(=O)[C@H](CO)c3ccccc3)C[C@H]1[C@@H]1O[C@@H]12` [Scopolamine] gave a LogMA [1] of 1.462.
Compound `CCOC(=O)C1=C(COCCN)NC(C)=C(C(=O)OC)C1c1ccccc1Cl` (stereo not shown) [Amlodipine] has a LogHSA (human serum albumin; [2]) of −5.000.
For `CC1(C)S[C@@H]2[C@H](NC(=O)[C@H](N)c3ccc(O)cc3)C(=O)N2[C@H]1C(=O)O` [Amoxicilin], the LogHSA (human serum albumin; [2]) was −2.301 and the LogMA [1] was 0.778.
With `C[C@H](N[C@@H](CCc1ccccc1)C(=O)O)C(=O)N1CCC[C@H]1C(=O)O` [Enalaprilate] the LogMA [1] was 0.176.
Compound `C=CCOc1ccccc1OCC(O)CNC(C)C` (stereo not shown) [Oxprenolol] has a LogHSA (human serum albumin; human) of −3.301 and a LogMA [1] of 2.301.
Work on `CCCCNc1cc(C(=O)O)cc(S(N)(=O)=O)c1Oc1ccccc1` [Bumetanide] yielded a LogHSA (human serum albumin; human) of −5.076 and a LogMA [1] of 2.279.
Compound `CC(C)Cc1ccc(C(C)C(=O)O)cc1` (stereo not shown) [Ibuprofen] has a LogMA [1] of 1.778.
Work on `COc1ccc([C@@H]2Sc3ccccc3N(CCN(C)C)C(=O)[C@@H]2OC(C)=O)cc1` [Diltiazem] yielded a LogMA [1] of 2.544.
Work on `CCN1CCN(C(=O)N[C@@H](C(=O)N[C@@H]2C(=O)N3C(C(=O)O)=C(CSc4nnnn4C)CS[C@H]23)c2ccc(O)cc2)C(=O)C1=O` [Cefoperazone] yielded a LogMA [1] of 1.362.
`COC(=O)C1=C(C)NC(C)=C(C(=O)OCCN(C)Cc2ccccc2)C1c1cccc([N+](=O)[O-])c1` (stereo not shown) [Nicardipine] gave a LogHSA (human serum albumin; human) of −5.000.
`CCOC(=O)C1=C(C)NC(C)=C(C(=O)OC)C1c1cccc(Cl)c1Cl` (stereo not shown) [Felodipine] gave a LogHSA (human serum albumin; [2]) of −5.301.
Compound `NS(=O)(=O)c1cc(C(=O)O)c(NCc2ccco2)cc1Cl` [Furosemide] has a LogMA [1] of 1.342.
`CN(C)CCCN1c2ccccc2Sc2ccccc21` [Promazine] gave a LogHSA (human serum albumin; [2]) of −3.301 and a LogMA [1] of 3.823.
For `Cc1onc(-c2c(Cl)cccc2Cl)c1C(=O)N[C@@H]1C(=O)N2[C@@H]1SC(C)(C)[C@@H]2C(=O)O` [Dicloxacillin], the LogHSA (human serum albumin; human) was −4.064 and the LogMA [1] was 2.079.
For `Cc1cc(=O)n(-c2ccccc2)n1C` [Antipyrine], the LogMA [1] was 1.146.
Work on `COc1ccc2c(c1)c(CC(=O)O)c(C)n2C(=O)c1ccc(Cl)cc1` [Indomethacin] yielded a LogMA [1] of 2.255.
With `CN1CCN(c2c(F)cc3c(=O)c(C(=O)O)cn(CCF)c3c2F)CC1` [Fleroxacin] the LogHSA (human serum albumin; human) was −2.523 and the LogMA [1] was 1.301.
For `CC(C)NCC(O)COc1cccc2[nH]ccc12` (stereo not shown) [Pindolol], the LogHSA (human serum albumin; human) was −2.699 and the LogMA [1] was 2.398.
With `CC1=C(C(=O)O)N2C(=O)[C@@H](NC(=O)[C@H](N)c3ccccc3)[C@H]2SC1` [Cephalexine] the LogMA [1] was 0.778.
`CC1=C(C(=O)O)N2C(=O)[C@@H](NC(=O)[C@H](N)c3ccc(O)cc3)[C@H]2SC1` [Cefadroxil] showed a LogMA [1] of 1.079.
With `CC(C)NCC(O)c1ccc(NS(C)(=O)=O)cc1` (stereo not shown) [Sotalol] the LogHSA (human serum albumin; human) was −1.678 and the LogMA [1] was 1.301.
Work on `CC(=O)[C@H]1CC[C@H]2[C@@H]3CCC4=CC(=O)CC[C@]4(C)[C@H]3CC[C@]12C` [Progesteron] yielded a LogHSA (human serum albumin; [2]) of −6.189 and a LogMA [1] of 3.843.
`C[C@H]1O[C@@H](O[C@H]2[C@@H](O)C[C@H](O[C@H]3[C@@H](O)C[C@H](O[C@H]4CC[C@@]5(C)[C@H](CC[C@@H]6[C@@H]5C[C@@H](O)[C@]5(C)[C@@H](C7=CC(=O)OC7)CC[C@]65O)C4)O[C@@H]3C)O[C@@H]2C)C[C@H](O)[C@@H]1O` [Digoxin] showed a LogHSA (human serum albumin; [2]) of −2.284 and a LogMA [1] of 1.477.
Work on `CC(CN1c2ccccc2Sc2ccccc21)N(C)C` (stereo not shown) [Promethazine] yielded a LogHSA (human serum albumin; human) of −3.028 and a LogMA [1] of 3.992.
Compound `CO[C@@]1(NC(=O)CSCC#N)C(=O)N2C(C(=O)O)=C(CSc3nnnn3C)CS[C@@H]21` [Cefmetazole] has a LogMA [1] of 1.079.
For `CC(C)NCC(O)COc1ccc(CCOCC2CC2)cc1` (stereo not shown) [Betaxolol], the LogHSA (human serum albumin; human) was −3.187 and the LogMA [1] was 2.398.
`Nc1nc(O)c2ncn(COC(CO)CO)c2n1` [Ganciclovir] gave a LogMA [1] of −0.301.
For `CNC(=C[N+](=O)[O-])NCCSCc1ccc(CN(C)C)o1` [Ranitidine], the LogHSA (human serum albumin; human) was −2.155.
In the case of `C[C@]12C=CC(=O)C=C1CC[C@@H]1[C@@H]2[C@@H](O)C[C@@]2(C)[C@H]1CC[C@]2(O)C(=O)CO` [Prednisolone], the LogMA [1] was 2.568.
